Source: PubChem BioAssay AID248 (DTP/NCI, 2004)
Where “and” joins values, the source holds several entries; their conditions need not be identical. Identical values can stand only once. Inconclusive results and toxic doses are left out. Cut-off read from the data, not from the text of the source: active = T/C of 150% or more; inactive = T/C below 125%.

System: L1210 leukemia ip in BDF1 mice, survival T/C
Assay: NCI In Vivo Anticancer Drug Screen. Data for tumor model L1210 Leukemia (intraperitoneal) in B6D2F1 (BDF1) mice
Settings: endpoint: mean survival time, higher = longer survival
Method in brief: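 Ratio derived from survival: compound-dosed mice over vehicle-dosed mice, all bearing a transplantable tumor.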

[1] = dose: 100.0 mg/kg/injection, schedule: Q01DX009 (ip), vehicle: saline with Tween-80
[2] = dose: 200.0 mg/kg/injection, schedule: Q01DX009 (ip), vehicle: saline with Tween-80
[3] = dose: 100.0 mg/kg/injection, schedule: Q01DX009 (ip), vehicle: Klucel (hydroxypropylcellulose) (HPC)
[4] = dose: 100.0 mg/kg/injection, schedule: Q01DX001 (ip), vehicle: saline
[5] = dose: 200.0 mg/kg/injection, schedule: Q01DX001 (ip), vehicle: saline
[6] = dose: 400.0 mg/kg/injection, schedule: Q01DX001 (ip), vehicle: saline
[7] = dose: 25.0 mg/kg/injection, schedule: Q01DX009 (ip), vehicle: saline with Tween-80
[8] = dose: 50.0 mg/kg/injection, schedule: Q01DX009 (ip), vehicle: saline with Tween-80
[9] = dose: 50.0 mg/kg/injection, schedule: Q01DX001 (ip), vehicle: carboxymethylcellulose (CMC)
[10] = dose: 100.0 mg/kg/injection, schedule: Q01DX001 (ip), vehicle: carboxymethylcellulose (CMC)
[11] = dose: 200.0 mg/kg/injection, schedule: Q01DX001 (ip), vehicle: carboxymethylcellulose (CMC)
[12] = dose: 400.0 mg/kg/injection, schedule: Q01DX001 (ip), vehicle: carboxymethylcellulose (CMC)
[13] = dose: 100.0 mg/kg/injection, schedule: Q01DX001 (ip), vehicle: Klucel (hydroxypropylcellulose) (HPC)
[14] = dose: 200.0 mg/kg/injection, schedule: Q01DX009 (ip), vehicle: Klucel (hydroxypropylcellulose) (HPC)
[15] = dose: 400.0 mg/kg/injection, schedule: Q01DX001 (ip), vehicle: Klucel (hydroxypropylcellulose) (HPC)
[16] = dose: 400.0 mg/kg/injection, schedule: Q01DX009 (ip), vehicle: Klucel (hydroxypropylcellulose) (HPC)
[17] = dose: 100.0 mg/kg/injection, schedule: Q04DX003 (ip), vehicle: Klucel (hydroxypropylcellulose) (HPC)
[18] = dose: 200.0 mg/kg/injection, schedule: Q04DX003 (ip), vehicle: Klucel (hydroxypropylcellulose) (HPC)
[19] = dose: 400.0 mg/kg/injection, schedule: Q04DX003 (ip), vehicle: Klucel (hydroxypropylcellulose) (HPC)

Measured: T/C

CC1(CC(=O)O)CCCCC1CC(=O)O (stereo not drawn)
inactive: dose: 100.0 mg/kg/injection, schedule: Q04DX002 (ip), vehicle: Klucel (hydroxypropylcellulose) (HPC) 110 % of control | dose: 200.0 mg/kg/injection, schedule: Q04DX002 (ip), vehicle: Klucel (hydroxypropylcellulose) (HPC) 103 % of control | dose: 400.0 mg/kg/injection, schedule: Q04DX002 (ip), vehicle: Klucel (hydroxypropylcellulose) (HPC) 97 % of control

Nc1nc(C=O)c(-c2cccc3ccccc23)c(=O)[nH]1
inactive: [1] 112 % of control | [2] 94 % of control

CC(=O)OCC(=O)[C@@]12OC(C)(C)O[C@@H]1C[C@H]1[C@@H]3CC(C=O)=C4C=C(OCCCl)CC[C@]4(C)[C@@]3(F)[C@@H](O)C[C@@]12C
inactive: [3] 95 % of control

CCOC(=O)N/N=C/c1c(F)cccc1Cl
inactive: dose: 75.0 mg/kg/injection, schedule: Q01DX001 (ip), vehicle: carboxymethylcellulose (CMC) 101 % of control | dose: 150.0 mg/kg/injection, schedule: Q01DX001 (ip), vehicle: carboxymethylcellulose (CMC) 106 % of control | dose: 300.0 mg/kg/injection, schedule: Q01DX001 (ip), vehicle: carboxymethylcellulose (CMC) 101 % of control

O=C(CCCC(=O)N/N=C/c1cccc(I)c1)N/N=C\c1cccc(I)c1
inactive: dose: 50.0 mg/kg/injection, schedule: Q01DX001 (ip), vehicle: saline 100 % of control | [4] 100 % of control | [5] 100 % of control | [6] 97 % of control

CCOc1ccc(NC(=O)NCBr)cc1
inactive: dose: 12.5 mg/kg/injection, schedule: Q01DX009 (ip), vehicle: saline with Tween-80 106 % of control | [7] 95 % of control | [8] 87 % of control | [1] 87 % of control

Clc1ccnc(SCc2ccccc2)n1
inactive: dose: 100.0 mg/kg/injection, schedule: Q01DX Z (ip), vehicle: methylcellulose (MC) 91 % of control | dose: 200.0 mg/kg/injection, schedule: Q01DX Z (ip), vehicle: methylcellulose (MC) 104 % of control

COC1OC(COC(c2ccccc2)(c2ccccc2)c2ccccc2)C2SC12 (stereo not drawn)
inactive: [9] 102 % of control | [10] 107 % of control | [11] 100 % of control | [12] 96 % of control

CCOC(=O)C(C)Oc1ccc([N+](=O)[O-])cc1Cl (stereo not drawn)
inactive: dose: 100.0 mg/kg/injection, schedule: Q01DX009 (ip), vehicle: gum acacia 94 % of control | dose: 200.0 mg/kg/injection, schedule: Q01DX009 (ip), vehicle: gum acacia 99 % of control | dose: 400.0 mg/kg/injection, schedule: Q01DX009 (ip), vehicle: gum acacia 99 % of control

CC(C)(C)O[Si](OCC(F)(F)C(F)(F)C(F)(F)C(F)(F)C(F)(F)C(F)F)(OCC(F)(F)C(F)(F)C(F)(F)C(F)(F)C(F)(F)C(F)F)OC(C)(C)C
inactive: [9] 100 % of control | [10] 94 % of control | [11] 94 % of control | [12] 94 % of control

CCOC(=O)C(Br)(C(=O)OCC)C(=O)c1cc(-c2ccc(Cl)c(Cl)c2)nc2c(Cl)cc(Cl)cc12
inactive: [13] 103 % of control | [3] 95 % of control | dose: 200.0 mg/kg/injection, schedule: Q01DX001 (ip), vehicle: Klucel (hydroxypropylcellulose) (HPC) 111 % of control | [14] 96 % of control | [15] 105 % of control | [16] 95 % of control

CC(=O)CC(C)=NCCN=C(C)CC(C)=O.[Cu]
inactive: dose: 6.0 mg/kg/injection, schedule: Q01DX009 (ip), vehicle: saline with Tween-80 97 % of control | dose: 12.0 mg/kg/injection, schedule: Q01DX009 (ip), vehicle: saline with Tween-80 98 % of control | dose: 12.5 mg/kg/injection, schedule: Q01DX001 (ip), vehicle: saline with Tween-80 94 % of control | dose: 12.5 mg/kg/injection, schedule: Q04DX003 (ip), vehicle: saline with Tween-80 93 % of control | dose: 25.0 mg/kg/injection, schedule: Q01DX001 (ip), vehicle: saline with Tween-80 91 % of control | [7] 101 % of control | dose: 25.0 mg/kg/injection, schedule: Q04DX003 (ip), vehicle: saline with Tween-80 100 % of control | dose: 50.0 mg/kg/injection, schedule: Q01DX001 (ip), vehicle: saline with Tween-80 91 % of control | dose: 50.0 mg/kg/injection, schedule: Q04DX003 (ip), vehicle: saline with Tween-80 88 % of control

CSc1ncnc2c1ncn2C1CCCO1 (stereo not drawn)
inactive: dose: 37.5 mg/kg/injection, schedule: Q01DX Z (ip), vehicle: methylcellulose (MC) 101 % of control | dose: 75.0 mg/kg/injection, schedule: Q01DX Z (ip), vehicle: methylcellulose (MC) 111 % of control

O=C(O)/C=C(\CC(=O)O)C(=O)O
inactive: [13] 95 % of control | [4] 92 % of control | [5] 90 % of control | [15] 95 % of control | [6] 98 % of control

O=C(O)c1cc(-c2cccc(C(F)(F)F)c2)nc2c(C(F)(F)F)cccc12
inactive: [8] 96 % of control | [1] 96 % of control | dose: 100.0 mg/kg/injection, schedule: Q04DX003 (ip), vehicle: saline with Tween-80 101 % of control | dose: 200.0 mg/kg/injection, schedule: Q04DX003 (ip), vehicle: saline with Tween-80 105 % of control

O=C(/N=N/C(=O)Oc1ccccc1)Oc1ccccc1
inactive: [4] 98 % of control | [5] 101 % of control | [6] 98 % of control

CCc1ccccc1OS(=O)(=O)c1ccc([N+](=O)[O-])cc1
inactive: [3] 109 % of control | [17] 92 % of control | [14] 102 % of control | [18] 100 % of control | [16] 102 % of control | [19] 100 % of control

NNC(=O)CC(NN)c1ccccc1O (stereo not drawn)
inactive: dose: 100.0 mg/kg/injection, schedule: Q04DX002 (ip), vehicle: saline with Tween-80 90 % of control | dose: 200.0 mg/kg/injection, schedule: Q04DX002 (ip), vehicle: saline with Tween-80 100 % of control | dose: 400.0 mg/kg/injection, schedule: Q04DX002 (ip), vehicle: saline with Tween-80 102 % of control

O=C1Sc2ccccc2C1=O
inactive: [4] 94 % of control | [17] 91 % of control | [5] 103 % of control | [18] 94 % of control | [19] 102 % of control

CC(=O)Nc1ccc(NC(=O)Nc2cccc(F)c2)cc1
inactive: [1] 92 % of control | [2] 89 % of control | dose: 400.0 mg/kg/injection, schedule: Q01DX009 (ip), vehicle: saline with Tween-80 92 % of control

CCCCCCC(/C=N\NC(=O)c1cccc2ccccc12)=C\c1ccccc1
inactive: [5] 97 % of control

CC1OC1C1OC1C (stereo not drawn)
inactive: dose: 100.0 mg/kg/injection, schedule: Q04DX002 (ip), vehicle: saline 109 % of control | dose: 100.0 mg/kg/injection, schedule: Q04DX003 (ip), vehicle: saline 104 % of control and 101 % of control and 97 % of control | dose: 200.0 mg/kg/injection, schedule: Q04DX002 (ip), vehicle: saline 109 % of control | dose: 200.0 mg/kg/injection, schedule: Q04DX003 (ip), vehicle: saline 108 % of control and 111 % of control and 95 % of control | dose: 400.0 mg/kg/injection, schedule: Q04DX002 (ip), vehicle: saline 109 % of control | dose: 400.0 mg/kg/injection, schedule: Q04DX003 (ip), vehicle: saline 111 % of control and 97 % of control and 98 % of control
